Test results from the METLIN SMRT retention time set (Domingo-Almenara et al. 2019).

test: gradient 5% acetonitrile 3 min, to 50% in 2 min, to 85% in 15 min, held 3 min, 100 µL/min; conditions: column: Zorbax Extend-C18 2.1 x 50 mm; eluents: water / acetonitrile, 0.1% formic acid
In short: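 Using water and acetonitrile that each contained 0.1% formic acid, mixtures of ~100 pure standards were separated at 100 μL/min on a Zorbax Extend-C18 column (2.1 × 50 mm, 1.8 μm). The HPLC fed a quadrupole time-of-flight mass spectrometer working in positive and negative ionization mode, with dead and dwell volumes of 40 μL and 900 μL. Data were acquired over 3 months. Retention time was read from computationally picked adduct peaks after manual inspection of each.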

Row | Structure (SMILES) | RP-LC retention time
1 | CCc1ccc(NC(=O)Cc2nc(C)c(C(=O)NCc3ccc(F)cc3)s2)cc1 | 946 s
2 | CC1CCc2nc(NC(=O)CSc3nnc(-c4ccccc4)o3)sc2C1 (stereo not given) | 989 s
3 | COc1ccc2[nH]cc(CCNC(=O)C(C)C3CCN(S(=O)(=O)c4cccs4)CC3)c2c1 (stereo not given) | 827 s
4 | O=C(NCC1(c2cccs2)CCOCC1)c1cccs1 | 705 s
5 | CCC(=O)N1CCc2sc(S(=O)(=O)N3CCN(c4cccc(C)c4)CC3)cc2C1 | 1010 s
6 | O=C(C1=CN(c2ccc(Oc3ccccc3)cc2)c2ccccc2S1(=O)=O)N1CCOCC1 | 913 s
7 | COc1ccc(C(=O)Nc2cnn(C)c(=O)c2N2CCOCC2)cc1OC | 684 s
8 | Cc1ccc(CNC(=O)Cn2ncc3c(c2=O)N(CC2CC2)C(=O)CS3)cc1 | 784 s
9 | COc1ccc(Cl)cc1N1CC(c2nc(-c3ccncc3)no2)CC1=O (stereo not given) | 752 s
10 | O=C(Nc1ccc(Cl)c(C(F)(F)F)c1)C1CCN(C(=O)C2Sc3ccccc3NC2=O)CC1 (stereo not given) | 948 s
11 | C[C@@]1(C(=O)Nc2ccc(F)nc2)CCCN1c1nc(Nc2cc(C3CC3)[nH]n2)c2cccn2n1 | 946 s
12 | O=C(Nc1cc(F)ccc1F)Nc1c(-c2ccccc2)nc2ccccn12 | 677 s
13 | Fc1cccc(-c2nc(-c3ccnc(N4CCOCC4)c3)no2)c1 | 967 s
14 | CCN1C(=O)c2cccnc2Sc2cc(NC(=O)C3(c4ccc(OC)cc4)CC3)ccc21 | 939 s
15 | Cc1ccc(F)cc1NC(=O)Cn1cnc2nc(N3CCCC(C(=O)NC4CC4)C3)sc2c1=O (stereo not given) | 686 s
16 | Cc1noc(C)c1-c1ccc(S(=O)(=O)Nc2ccc(F)c(Cl)c2)cc1 | 969 s
17 | COc1ccc(CC(=O)Nc2nnc(SCc3ccccc3F)s2)cc1OC | 824 s
18 | Cc1ccc(NC(=O)C2(CCO)CCN(c3ncccn3)C2)cc1 (stereo not given) | 630 s
19 | CCOC(=O)c1c(C)oc2ncnc(N3CCC(c4ccccc4)C3)c12 (stereo not given) | 1100 s
20 | CC(C)C(=O)N1CCC2(C1)c1nc[nH]c1CCN2CC1CCCCC1 (stereo not given) | 608 s
21 | O=c1c(=O)n(-c2ccc(Br)cc2)ccn1Cc1ccncc1 | 554 s
22 | CCOc1ccc(S(=O)(=O)N2CCC(C(=O)Nc3ccc(OC)cc3OC)CC2)cc1C | 1010 s
23 | CC(C)CCN(CC(=O)N1CCNCC1)C(=O)c1cccc(Br)c1 | 654 s

Row | Structure (SMILES) | RP-LC retention time
24 | COCCCn1c(=O)c2ccccc2n(Cc2nc(-c3ccc(C)cc3)no2)c1=O | 1060 s
25 | Cc1ccc(CNC(=O)C2(C)CN(S(C)(=O)=O)CC(=O)N2CCC(C)C)cc1 (stereo not given) | 865 s
26 | COc1ccc(C)cc1NC(=O)N1CCCC1c1cc(C)no1 (stereo not given) | 835 s
27 | Cc1nc(N2CCCC2)c2c(C(=O)Nc3ccc(Cl)cc3)c(C)oc2n1 | 848 s
28 | O=C(Cc1ccc(Cl)cc1)Nc1ccc(N2CCN(C3CCCC3)C2=O)nc1 | 834 s
29 | COc1cccc(C(=O)N2CCN=C2N2CCCC2)c1OC | 614 s
30 | Cc1cc(-c2nnc(-c3ccc(F)cc3)o2)c(C)n1CC(=O)NCc1cccnc1 | 637 s
31 | Cc1ccc(C)c(NS(=O)(=O)c2c(C)sc(C)c2-c2n[nH]c(C)c2C)c1 | 1140 s
32 | COc1ncccc1CNC(=O)c1ccc(C)nc1 | 562 s
33 | COC(=O)c1ccc(NC(=O)c2ccc(-n3ccnc3C)nn2)cc1 | 561 s
34 | COC(=O)c1c(C)[nH]c(C(=O)N2CCC(CC(=O)NCc3ccc(N(C)C)cc3)CC2)c1C | 595 s
35 | Cc1nc(C)c(C(=O)NCC23CCCC=C2N(CC2CC2)C(=O)CC3)s1 (stereo not given) | 785 s
36 | O=C1CC(C(=O)N2CCOCC2)CN1CCc1c[nH]c2ccc(Cl)cc12 (stereo not given) | 677 s
37 | Cc1ccc(Nc2c(-c3ccc(N4CCOCC4)cc3)nc3cc(C)ccn23)cc1 | 769 s
38 | COc1ccccc1CNC(=O)CN1C(=O)CSc2cccn2-c2ccccc21 | 613 s
39 | CCn1c(SCC(=O)Nc2nc(-c3ccccc3)cs2)nnc1-c1nonc1NC(C)=O | 897 s
40 | Cc1ccc(-n2nnnc2CN2CCN(C(=O)CSc3nnnn3C)CC2)cc1 | 664 s
41 | O=C1NC(=S)S/C1=C\c1ccccc1C(=O)O | 835 s
42 | Cc1cccc(CNC(=O)Cn2c(C)cc(-c3nnc(-c4ccccc4)o3)c2C)c1 | 921 s
43 | CC(C)CC(=O)Nc1ccc(-n2cnc(C(=O)N3CCc4ccccc4C3)c2)nc1 | 817 s
44 | CCCCCNC(=O)C1CCCN(S(=O)(=O)c2cc(Cl)ccc2OC)C1 (stereo not given) | 960 s
45 | CCN(CC)CCNC(=O)Cn1c2ccccc2c2nc(=O)cc(C)n21 | 592 s
46 | O=C(Nc1ccc(N2CCOCC2)cc1)c1cc2ccccc2o1 | 757 s

Row | Structure (SMILES) | RP-LC retention time
47 | Cc1ccc(S(=O)(=O)N2CCc3c(c(-c4nnc(-c5ccc(F)cc5)o4)nn3C)C2)cc1C | 851 s
48 | Cc1ccc(Nc2c(-c3ccc(Cl)cc3)nc3ccccn23)cc1 | 787 s
49 | COCCN1C(=O)Cc2ccccc2C1C(=O)N1CCN(c2ccccn2)CC1 (stereo not given) | 581 s
50 | CCc1cc(OCC(=O)N2CCN(c3ccccn3)CC2)nc2c1c(C)nn2-c1ccc(C)cc1 | 790 s
51 | Cc1nnc2ccc(N3CCN(C(=O)COc4ccc5c(c4)OCO5)CC3)nn12 | 617 s
52 | CC(C)CN1C(=O)c2ccccc2C(C(=O)NCCCN2CCN(C)CC2)C1c1cccs1 (stereo not given) | 607 s
53 | Cc1nc(CC(=O)Nc2c(F)cccc2F)sc1C(=O)NC1CC1 | 660 s
54 | CN(C)C(=O)c1cccc2c1CCN2C(=O)c1ccc(F)cc1 | 719 s
55 | Cc1nc(-c2noc(-c3ccncc3)n2)cn1CC(=O)NCc1ccc(Cl)cc1 | 683 s
56 | COc1ccc2cc(C(=O)N3CCC(CC(=O)NC4CC4)CC3)[nH]c2c1 | 690 s
57 | COc1ccc(-c2nc(C3CC(=O)N(c4ccc(C)cc4)C3)no2)cc1OC (stereo not given) | 937 s
58 | Cc1ccc(Nc2ncnc3nc[nH]c23)cc1Cl | 682 s
59 | Cc1ccc(-c2csc(NC(=O)CSc3nc4c(cc3C#N)CCCC4)n2)cc1 | 1290 s
60 | COc1cc(OC)cc(-c2nc(-c3ccc4nnn(C(C)C)c4c3)no2)c1 | 1160 s
61 | COc1cccc(C2CC(c3ccc(Cl)cc3)=NC3(CCN(C)CC3)N2)c1O (stereo not given) | 606 s
62 | CCCn1cc(C2=CCN(C(=O)NCc3ccc(C)cc3)CC2)c2cccnc21 | 939 s
63 | CCN(Cc1ccccc1)c1ccc(-c2noc(CN3CCSCC3)n2)cn1 | 1030 s
64 | Cc1ccc(C)c(-c2nc(-c3cccc(-c4ccn[nH]4)c3)no2)c1 | 1190 s
65 | CCCN(CC1CCOC1)S(=O)(=O)c1ccc(C)c(Cl)c1 (stereo not given) | 1050 s
66 | CC(NC(=O)C1CCN(C(=O)c2ncn3c2COC(c2ccc(Cl)cc2)C3)CC1)c1ccccc1 (stereo not given) | 854 s
67 | O=C(NC1(c2nc(-c3ccccc3)no2)CCCCC1)c1ccccc1F | 1100 s
68 | O=C(c1ccc(C(F)(F)F)s1)N1C[C@@H]2C[C@H]1C[C@@H]2NS(=O)(=O)c1cccs1 | 813 s
69 | Cn1ccnc1SCC(=O)Nc1nc(-c2ccc(Cl)cc2)cs1 | 690 s

Row | Structure (SMILES) | RP-LC retention time
70 | Cc1ccc(C(=O)NCCc2nc3cccnc3n2C(C)C)c(C)c1 | 695 s
71 | Cc1nnsc1C(=O)N1CCc2nc(NC(=O)C3CC3)sc2C1 | 630 s
72 | CCn1c(=O)sc2cc(S(=O)(=O)N3CCC(C(=O)Nc4cccc(F)c4)CC3)ccc21 | 941 s
73 | O=C(NCc1ccccc1)c1cn(-c2ccc(-c3nc(C4CC4)no3)cn2)cn1 | 915 s
74 | Cn1nccc1C(=O)N1CCN(S(=O)(=O)c2ccc3c(c2)sc(=O)n3C)CC1 | 699 s
75 | Cc1nnc2nc(-c3ccccc3)nc(-c3ccccc3)n12 | 1130 s
76 | CN(C)C(CNC(=O)c1cc(-c2cccs2)on1)c1ccccc1 (stereo not given) | 664 s
77 | CSc1nc(C)c(Br)c(N2CC2)n1 | 596 s
78 | COc1ccc(-c2nc3cccnc3n2C2CCN(C(=O)c3ccco3)C2)cc1 (stereo not given) | 685 s
79 | CCCNC(=O)c1cc(-c2ccccc2)cn1CC | 977 s
80 | CCN(CC)CCCC(C)Nc1ccnc(/C=C/c2ccc(Cl)cc2)c1 (stereo not given) | 602 s
81 | COc1ccc(CCNc2nc(-c3ccc(OC)c(OC)c3)cs2)cc1OC | 728 s
82 | CCN1c2ccc(F)cc2C(=O)NC12CCN(C(=O)c1cccc(F)c1)CC2 | 791 s
83 | COc1ccc(-c2noc(C3CC(=O)N(c4ccc(F)cc4)C3)n2)cc1OC (stereo not given) | 808 s
84 | Cn1cnc2c(C(=O)NC3CCCCC3)nn(-c3ccccc3)c2c1=O | 855 s
85 | O=C(Cc1csc(NC(=O)c2ccsc2)n1)Nc1nc2c(s1)CCCC2 | 874 s
86 | O=C(NC1CC1)C1CCCN(S(=O)(=O)c2c[nH]c(C(=O)N3CCCCCC3)c2)C1 (stereo not given) | 702 s
87 | CCn1ccc2oc(C)c(C(=O)N3CCN(c4ccc(Cl)cc4)CC3)c2c1=O | 854 s
88 | O=C(Nc1ccc(-n2cnc(C(=O)N3CCC(Cc4ccccc4)CC3)c2)nc1)C1CC1 | 860 s
89 | Cc1ccn2cc(-c3ccc(NC(=O)c4ccc([N+](=O)[O-])cc4Cl)cc3)nc2n1 | 660 s
90 | COc1ncccc1CNC(=O)c1cccn1C | 704 s
